Test results from US7897781B2, “Cold menthol receptor-1 antagonists” (Janssen Pharmaceutica NV, priority 2006, dated 2011).
Values joined by “and” are separate entries in the source; they are usually repeats but may differ in a detail not shown here. Equal entries are not always repeated.

Columns and labels:
Sprague-Dawley rats = assay: CFA-induced paw radiant heat hypersensitivity; format: in vivo, rat; conditions: 30 mg/kg p.o., time 1 h
Protocol: Intraplantar injection of Complete Freund's Adjuvant (CFA) in rodents results in a long-lasting inflammatory reaction, characterized by a pronounced hypersensitivity to both thermal and mechanical stimuli. This hypersensitivity peaks between 24-72 hours following injection and can last for several weeks. […] This paradigm also may be conducted with a multiple dosing or a prophylactic dosing regime designed to alter the course of hyperalgesia development. This test predicts the analgesic, anti-allodynic and antihyperalgesic effect of numerous effective clinical agents, including NSAIDS such as acetaminophen, aspirin and ibuprofen, and opioids such as morphine.
Each rat was placed in a test chamber on a warm glass surface and allowed to acclimate for approximately 10 minutes. A radiant thermal stimulus (beam of light) was then focused through the glass onto the plantar surface of each hind paw in turn. The thermal stimulus was automatically shut off by a photoelectric relay when the paw was moved or when the cut-off time was reached (20 seconds for radiant heat at ˜5 Amps). An initial (baseline) response latency to the thermal stimulus was recorded for each animal prior to the injection of CFA. Twenty-four hours following intraplantar CFA injection, the response latency of the animal to the thermal stimulus was then re-evaluated and compared to the animal's baseline response time. […] Immediately following the post-CFA latency assessment, test compound or vehicle (usually Solutol, hydroxypropyl methylcellulose, hydroxypropyl beta-cyclodextrin or PEG-400) was administered i.p. or p.o. to rats. […] The percent reversal (% R) of hypersenstivitiy was calculated according to the following formula: % Reversal=(Treatment Response−CFA Response)/(Baseline Response−CFA Response)×100.

canine TRPM8 = target: T1, canine TRPM8 (Canis lupus familiaris, UniProt Q1A7N1); assay: In vitro canine TRPM8 functional assay (Ca2+-sensitive dye, icilin activation; Table 4 TRPM8 Screening); format: cell-based; conditions: HEK293 cells expressing canine TRPM8, icilin activation; for % I (1 μM): compound at 1 μM; for % I (5 μM): compound at 5 μM
T1 construct: expressed in transfected cells
T1 sequence (Q1A7N1 1-1104): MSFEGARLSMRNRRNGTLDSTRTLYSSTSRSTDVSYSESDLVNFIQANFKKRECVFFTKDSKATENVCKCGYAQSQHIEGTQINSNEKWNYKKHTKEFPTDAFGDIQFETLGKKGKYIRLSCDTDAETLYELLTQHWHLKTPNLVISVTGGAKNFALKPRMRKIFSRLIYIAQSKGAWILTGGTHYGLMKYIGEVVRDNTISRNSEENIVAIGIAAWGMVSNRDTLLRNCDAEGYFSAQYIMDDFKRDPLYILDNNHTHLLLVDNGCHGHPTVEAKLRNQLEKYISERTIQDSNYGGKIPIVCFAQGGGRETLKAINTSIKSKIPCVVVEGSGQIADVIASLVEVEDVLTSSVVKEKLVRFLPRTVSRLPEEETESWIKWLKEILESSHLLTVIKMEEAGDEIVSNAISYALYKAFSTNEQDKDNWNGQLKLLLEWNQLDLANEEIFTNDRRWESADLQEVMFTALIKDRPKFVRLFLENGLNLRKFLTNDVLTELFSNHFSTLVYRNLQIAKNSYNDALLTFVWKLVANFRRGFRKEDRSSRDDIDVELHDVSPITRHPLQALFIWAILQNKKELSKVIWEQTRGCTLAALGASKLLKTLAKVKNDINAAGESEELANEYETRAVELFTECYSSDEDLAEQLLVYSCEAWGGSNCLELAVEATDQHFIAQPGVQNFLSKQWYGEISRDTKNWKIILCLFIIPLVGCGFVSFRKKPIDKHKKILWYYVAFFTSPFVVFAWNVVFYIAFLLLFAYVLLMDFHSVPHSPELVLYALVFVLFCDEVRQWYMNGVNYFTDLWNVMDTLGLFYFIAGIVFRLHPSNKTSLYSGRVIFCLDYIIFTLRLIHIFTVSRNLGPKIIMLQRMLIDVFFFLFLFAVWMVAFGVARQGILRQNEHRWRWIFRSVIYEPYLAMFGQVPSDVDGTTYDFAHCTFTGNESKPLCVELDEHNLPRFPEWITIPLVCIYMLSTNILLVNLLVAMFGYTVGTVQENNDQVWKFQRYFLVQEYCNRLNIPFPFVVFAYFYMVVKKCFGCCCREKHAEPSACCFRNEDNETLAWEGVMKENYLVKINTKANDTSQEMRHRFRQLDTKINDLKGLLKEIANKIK
Protocol: The functional activity of compounds of Formula (I) was determined by measuring changes in intracellular calcium concentration using a Ca^2+-sensitive fluorescent dye. The changes in fluorescent signal were monitored by a fluorescence plate reader, either a FLIPR™ (Molecular Devices) or FDSS (Hamamatsu).
HEK293 cells stably expressing canine TRPM8 were routinely grown as monolayers in Dulbecco's minimum essential medium supplemented with 10% FBS, 1 mM L-glutamine, 100 units/mL penicillin, 100 ug/mL streptomycin and 400 μg/mL G418. Cells were maintained in 5% CO2 at 37° C. At 24 hrs prior to assay, cells were seeded in clear-base poly-D-lysine coated 384-well plates (BD Biosciences, NJ, USA) at a density of 5,000 cells per well in culture medium and grown overnight in 5% CO2 at 37° C. On assay day, growth media was removed and cells were loaded with Calcium 3 Dye (Molecular Devices) for 35 min at 37° C., under 5% CO2 and then for 25 min at room temperature and atmosphere. Subsequently, cells were tested for agonist-induced increases in intracellular Ca^2+ levels using FLIPR™ or FDSS. Cells were challenged with a compound of Formula (I) (at varying concentrations) and intracellular Ca^2+ was measured for 5 min prior to the addition of icilin to all wells to achieve a final concentration which produces approximately an 80% maximal response.
Basal FI was subtracted prior to normalizing data to percent of maximal response. Curves were generated using the average of quadruplicate wells for each data point, were analyzed using nonlinear regression of either sigmoidal dose response or sigmoidal dose response (variable slope). Finally, the EC50 and IC50 values were calculated with the best-fit dose curve determined by GraphPad Prism.

| Compound | % I (0.5 μM) (canine TRPM8; compound at 0.5 μM) | % I (1 μM) (canine TRPM8) | also measured |
| --- | --- | --- | --- |
| CC(C)OP(=O)(OC(C)C)C(Cc1ccc(Cl)c(F)c1)c1sc2ccccc2c1Br (stereo not shown) [Cpd 190] | – | – | % Reversal (Sprague-Dawley rats): 45% |
| CC(C)OP(=O)(OC(C)C)C(Cc1cc(C(F)(F)F)ccc1F)c1sc2ccccc2c1Br (stereo not shown) [Cpd 335] | – | – | % Reversal (Sprague-Dawley rats): 0% |
| CCOP(=O)(OCC)C(Cc1ccc(F)c(F)c1)c1sc2ccccc2c1-c1cccc(C(=O)OC)c1 (stereo not shown) [Cpd 219] | 68% | – | – |
| CCOP(=O)(OCC)C(Cc1cc2c(cc1Cl)OCO2)c1sc2ccccc2c1C (stereo not shown) [Cpd 71] | – | 98% | – |
| Cc1c(C(Cc2ccc(F)c(F)c2)P(=O)(OCC(C)(C)C)OCC(C)(C)C)sc2ccccc12 (stereo not shown) [Cpd 53, [2-(3,4-Difluoro-phenyl)-1-(3-methyl-benzo[b]thiophen-2-yl)ethyl]-phosphonic acid bis-(2,2-dimethyl-propyl) ester] | – | 97% | – |
| CCOP(=O)(OCC)C(Cc1cccc(OC(F)(F)F)c1)c1sc2ccccc2c1Br (racemic) [Cpd 145] | 103, % | – | – |
| CCOP(=O)(Cc1cc2ccccc2s1)OCc1ccccc1Br (stereo not shown) [Cpd 110] | – | 11% | % I (5 μM) (canine TRPM8): 96% |
| CC(C)CCOP(=O)(OCCC(C)C)C(Cc1ccc(F)c(F)c1)c1sc2ccccc2c1Br (racemic) [Cpd 211] | 97% | – | – |
| CCOP(=O)(OCC)C(Cc1ccc(C(F)(F)F)cc1)c1cc2ccccc2s1 (stereo not shown) [Cpd 68] | – | 96% | – |
| CC(C)OP(=O)(OC(C)C)C(Cc1ccccc1F)c1sc2ccccc2c1Br (stereo not shown) [Cpd 196] | – | 100% | – |
| CCC(C)P(=O)(C(C)CC)C(Cc1ccc(F)c(F)c1)c1sc2ccccc2c1Br (stereo not shown) [Cpd 203] | – | 96% | – |
| CCOP(=O)(OCC)C(Cc1ccc(F)c(F)c1)C1=C(C)c2ccccc2S1(=O)=O (stereo not shown) [Cpd 88, [2-(3,4-Difluoro-phenyl)-1-(3-methyl-1,1-dioxo-1H-1λ^6-benzo-[b]thiophen-2-yl)-ethyl]-phosphonic acid diethyl ester] | – | 89% | – |
| CC(C)OP(=O)(OC(C)C)C(Cc1ccc(O)c(F)c1)c1sc2ccccc2c1Br (stereo not shown) [Cpd 227] | 52% | – | – |
| CCOP(=O)(OCC)C(Cc1cccc(Cl)c1Cl)c1sc2ccccc2c1C (stereo not shown) [Cpd 35] | – | 100% | – |
| Cc1c(C(Cc2ccc(F)c(F)c2)P(=O)(OC(C)C)OC(C)C)oc2ccccc12 (stereo not shown) [Cpd 11] | – | 99% | – |
| CCOP(=O)(OCC)C(Cc1ccc(OC)c(C(F)(F)F)c1)c1sc2ccccc2c1Cl (racemic) [Cpd 292] | 99% | – | – |
| CCOP(=O)(OCC)C(Cc1ccc(F)c(OC)c1)c1sc2ccccc2c1Br (stereo not shown) [Cpd 156] | 98% | – | – |
| CCCP(=O)(CCC)C(OCc1ccc(F)c(F)c1)c1sc2ccccc2c1C (stereo not shown) [Cpd 42] | – | 100% | – |
| CC(C)OP(=O)(OC(C)C)C(Cc1ccc(F)c(C(F)(F)F)c1)c1c(Br)c2ccccc2n1C(=O)OC(C)(C)C (stereo not shown) [Cpd 327, 3-Bromo-2-[1-(diisopropoxy-phosphoryl)-2-(4-fluoro-3-trifluoromethyl-phenyl)-ethyl]-indole-1-carboxylic acid tert-butyl ester] | – | – | inhibition at 0.5 µM (canine TRPM8; compound at 0.5 μM, read-out: % I (0.5 μM)): 44% |
| CC(C)OP(=O)(OC(C)C)C(Cc1cc(C(F)(F)F)ccc1Cl)c1sc2ccccc2c1Cl (stereo not shown) [Cpd 178] | 79% | – | – |
| CCOP(=O)(OCC)C(Cc1ccc(F)c(F)c1)c1sc2c(C(F)(F)F)cccc2c1C (stereo not shown) [Cpd 116] | – | 64% | – |
| CCOP(=O)(OCC)C(Cc1cccc(Cl)c1F)c1sc2ccccc2c1C (stereo not shown) [Cpd 23] | – | 100% | – |
| CCOP(=O)(OCC)C(Cc1cccc(Cl)c1Cl)c1cc2ccccc2s1 (stereo not shown) [Cpd 100] | – | 82% | – |
| CCOP(=O)(OCC)C(Cc1ccc2ccccc2c1)c1sc2ccccc2c1C (stereo not shown) [Cpd 46] | – | 99% | – |
| CCOP(=O)(Cc1cc2ccccc2s1)OCc1ccccc1Cl (racemic) [Cpd 105] | – | 48% | % I (5 μM) (canine TRPM8): 100% |
| CCOP(=O)(OCC)C(Cc1cc(C(F)(F)F)ccc1Cl)c1sc2ccccc2c1Cl (stereo not shown) [Cpd 274] | 95% | – | – |

| Compound | % I (0.5 μM) (canine TRPM8; compound at 0.5 μM) | % I (1 μM) (canine TRPM8) | also measured |
| --- | --- | --- | --- |
| CC(C)OP(=O)(OC(C)C)C(Cc1ccc(F)cc1)c1sc2cc(Br)ccc2c1Br (stereo not shown) [Cpd 200] | – | 81% | – |
| CCOP(=O)(OCC)C(Cc1cc(C(F)(F)F)ccc1C(F)(F)F)c1sc2ccccc2c1C (stereo not shown) [Cpd 113] | – | 25% | – |
| CCOP(=O)(OCC)C(Cc1c(Cl)cccc1Cl)c1sc2ccccc2c1C (stereo not shown) [Cpd 54] | – | 100% | – |
| CCOP(=O)(OCC)C(Cc1cccc(C(F)(F)F)c1)c1cc2ccccc2s1 (stereo not shown) [Cpd 39] | – | 100% | – |
| CCOP(=O)(OCC)C(Cc1ccc(C(F)(F)F)c(F)c1)c1cc2ccccc2s1 (stereo not shown) [Cpd 58] | – | 100% | – |
| COCCOCCOP(=O)(OCCOCCOC)C(Cc1ccc(F)c(F)c1)c1sc2ccccc2c1Br (stereo not shown) [Cpd 210] | 62% | – | – |
| (R)-[1-(3-Bromo-benzo[b]thiophen-2-yl)-2-(4-fluoro-phenyl)-ethyl]-phosphonic acid diisopropyl ester [Cpd 240] | 98% and 77% | – | – |
| CCOP(=O)(OCC)C(Cc1cc(F)c(Cl)cc1Cl)c1sc2ccccc2c1C (stereo not shown) [Cpd 76] | – | 100% | – |
| CC(C)OP(=O)(OC(C)C)[C@H](Cc1ccc(F)c(F)c1)c1sc2ccccc2c1Br [Cpd 235, (R)-[1-(3-Bromo-benzo[b]thiophen-2-yl)-2-(3,4-difluoro-phenyl)-ethyl]-phosphonic acid diisopropyl ester] | 93% | – | – |
| CCOP(=O)(OCC)C(Cc1cccc(C(F)(F)F)c1Cl)c1sc2ccccc2c1C (stereo not shown) [Cpd 81] | – | 100% and 87% | – |
| CCOP(=O)(OCC)C(Cc1ccc(O)cc1)c1sc2ccccc2c1Br (stereo not shown) [Cpd 324] | 54% | – | – |
| [2-(3,4-Difluoro-phenyl)-1-(3-methyl-benzo[b]thiophene-2-yl)-ethyl]-methyl-phosphonic acid ethyl ester [Cpd 30] | – | 100% and 99% | – |
| CCOP(=O)(OCC)C(Cc1ccccc1)c1cc2ccccc2s1 (stereo not shown) [Cpd 74] | – | 92% | – |
| CCOP(=O)(OCC)C(Cc1ccc(F)c(F)c1)c1c(C)c2ccccc2[s+]1[O-] (stereo not shown) [Cpd 118] | – | 23% | – |
| CCOP(=O)(OCC)C(Cc1cc(O)c(Cl)cc1F)c1sc2ccccc2c1Br (racemic) [Cpd 231] | 98% | – | – |
| CCOP(=O)(OCC)C(Cc1cc(OC)c(Cl)cc1F)c1sc2ccccc2c1Br (racemic) [Cpd 164] | 94% | – | – |
| CCOP(=O)(OCC)C(Cc1ccccc1C(F)(F)F)c1cc2ccccc2s1 (stereo not shown) [Cpd 102] | – | 86% | – |
| [2-(3,4-Difluoro-phenyl)-1-(3-methyl-benzo[b]thiophene-2-yl)-ethyl]-[3-(4-methoxy-phenyl)-propyl]-phosphonic acid ethyl ester [Cpd 135] | – | 90% | – |
| CCOP(=O)(OCC)C(Cc1ccccc1C)c1cc2ccccc2s1 (stereo not shown) [Cpd 89] | – | 91% | % I (5 μM) (canine TRPM8): 100% |
| CCOP(=O)(OCC)C(Cc1ccccc1Cl)c1cc2ccccc2s1 (stereo not shown) [Cpd 85] | – | 90% | % I (5 μM) (canine TRPM8): 100% |
| CC(C)OP(=O)(OC(C)C)C(Cc1cccc(O)c1F)c1sc2ccccc2c1Br (racemic) [Cpd 230] | 97% | – | – |
| COc1cc(CC(c2sc3ccccc3c2Br)P(=O)(OC(C)C)OC(C)C)ccc1F (stereo not shown) [Cpd 157] | 98% | – | – |
| Cc1c(C(Cc2ccc(F)c(F)c2)P(=O)(OC(C)C)OC(C)C)sc2ncccc12 (stereo not shown) [Cpd 34, [2-(3,4-Difluoro-phenyl)-1-(3-methyl-thieno[2,3-b]pyridin-2-yl)-ethyl]-phosphonic acid diisopropyl ester] | – | 101, 101% | – |
| CC(C)OP(=O)(OC(C)C)[C@H](Cc1ccc(F)c(C(F)(F)F)c1)c1sc2ccccc2c1Br [Cpd 243, (R)-[1-(3-Bromo-benzo[b]thiophen-2-yl)-2-(4-fluoro-3-trifluoromethylphenyl)-ethyl]-phosphonic acid diisopropyl ester] | 64% | – | – |
| CC(C)OP(=O)(OC(C)C)C(Cc1ccc(F)c(F)c1)c1sc2ncccc2c1Br (racemic) [Cpd 207] | 99% | – | – |
